Literature values, collected in PubChem BioAssay AID1259409 (Chemical Carcinogenesis Research Information System (CCRIS), 2018).

System: rodent chemically induced tumor inhibition, incidence and multiplicity
Experiment: CCRIS tumor inhibitor studies

C[S+](CC[C@H](N)C(=O)[O-])C[C@H]1O[C@@H](n2cnc3c(N)ncnc32)[C@H](O)[C@@H]1O (stereo not given in full)
tumour outcome (control, treated, inhibition, significance) (Carcinogen: 1,2-DIMETHYLHYDRAZINE, 540-73-8, Dose [Inhibitor]: 0, 96 UMOL/KG 4/D FOR 32 WK BEGINNING 1 WK POST CARCINOGEN DOSE (STUDY DURATION: 33 WK), Route [Inhibitor]: INTRAMUSCULAR, Species: RAT, Strain/Sex: F344/MALE, Target Tissue: Type of Lesion: LIVER: HEPATOCELLULAR CARCINOMA, Dose [Carcinogen]: 100 MG/KG ONCE 18 HR AFTER RATS WERE SUBJECTED TO TWO-THIRDS HEPATECTOMY, Promoter: OROTIC ACID, 65-86-1): 6/16 (38%), 1/24 (4%), 89%, not calculated
tumour outcome (control, treated, inhibition, significance) (Carcinogen: DIETHYLNITROSAMINE, 55-18-5, N-ACETYLAMINOFLUORENE, 53-96-3, Carcinogen: DIETHYLNITROSAMINE, 55-18-5, N-ACETYLAMINOFLUORENE, 53-96-3, Dose [Inhibitor]: 0, 64 UMOL/KG 6/D FOR 24 WK BEGINNING POST CARCINOGEN TREATMENT (STUDY DURATION: 28 MO), Route [Inhibitor]: INTRAMUSCULAR, Species: RAT, Strain/Sex: WISTAR/MALE, Target Tissue: Type of Lesion: LIVER: CARCINOMA, Dose [Carcinogen]: 150 MG/KG DEN ONCE THEN 2 WK LATER 0.03% AAF IN DIET FOR 2 WK WITH A PARTIAL HEPATECTOMY PERFORMED MIDWAY THROUGH CARCIN, Promoter: PHENOBARBITAL, 50-06-6): 10/10 (100%), 3/11 (27%), 73%, p<0.025

CCCCCCCCCCCCCCCCCCOC1=C(O)C([C@@H](O)CO)OC1=O (stereo not given in full)
tumour outcome (control, treated, inhibition, significance) (Carcinogen: NONE USED, Dose [Inhibitor]: 0, 0.1% IN DIET FOR DURATION OF STUDY (STUDY DURATION: 16 MO), Route [Inhibitor]: ORAL, Species: MOUSE, Strain/Sex: C3H/HENCRJ/MALE, Target Tissue: Type of Lesion: LIVER: ADENOMA, Promoter: NONE USED): 17/43 (40%), 20/39 (51%), -28%, not calculated
tumour outcome (control, treated, inhibition, significance) (Carcinogen: NONE USED, Dose [Inhibitor]: 0, 0.1% IN DIET FOR DURATION OF STUDY (STUDY DURATION: 16 MO), Route [Inhibitor]: ORAL, Species: MOUSE, Strain/Sex: C3H/HENCRJ/MALE, Target Tissue: Type of Lesion: LIVER: CARCINOMA, Promoter: NONE USED): 11/43 (26%), 2/39 (5%), 81%, p<0.05

CCC(C)SSC(C)CC (stereo not given)
tumour outcome (control, treated, inhibition, significance) (Carcinogen: BENZO[A]PYENE, 50-32-8, Dose [Inhibitor]: 0.06 MMOL/G DIET DAILY FOR 6 WK CONCURRENT WITH CARCINOGEN TREATMENT FOLLOWED BY 14 WK ON STANDARD DIET (STUDY DURATION:, Route [Inhibitor]: ORAL, Species: MOUSE, Strain/Sex: ICR/FEMALE, Target Tissue: Type of Lesion: FORESTOMACH: NEOPLASM, Dose [Carcinogen]: 0.3 MG/G IN DIET DAILY FOR 6 WK, Promoter: NONE USED): 40%, 41%, -3%, not significant

NCCc1cc(O)c(O)cc1O
tumour outcome (control, treated, inhibition, significance) (Carcinogen: AZOXYMETHANE, 25843-45-2, Dose [Inhibitor]: 0, 42 MG/KG BW IN 0.9% SALINE TWICE ON FIRST DAY THEN 0, 105 MG/KG 1/2 WK FOR DURATION OF STUDY (STUDY DURATION: 35 WK), Dose [Inhibitor]: 0, 42 MG/KG BW IN 0.9% SALINE TWICE ON FIRST DAY THEN 0, 105 MG/KG 1/2 WK FOR DURATION OF STUDY (STUDY DURATION: 35 WK), Route [Inhibitor]: INTRAPERITONEAL, Species: RAT, Strain/Sex: WISTAR/MALE, Target Tissue: Type of Lesion: COLON: TUMOR, Dose [Carcinogen]: 7.4 MG/KG BW IN 0.9% SALINE 1/WK FOR 10 WK, Promoter: NONE USED): 14/20 (70%), 4/17 (24%), 66%, p<0.02
tumour outcome (control, treated, inhibition, significance) (Carcinogen: N-METHYL-N'-NITRO-N-NITROSOGUANIDINE, 70-25-7, Dose [Inhibitor]: 0, 42 MG/KG 2/24 HR BEGINNING POST CARCINOGEN TREATMENT THEN 1 WK LATER 105 MG/KG 1/2 WK (STUDY DURATION: 52 WK), Route [Inhibitor]: INTRAPERITONEAL, Species: RAT, Strain/Sex: WISTAR/MALE, Target Tissue: Type of Lesion: STOMACH: ADENOCARCINOMA, Dose [Carcinogen]: 75 UG/ML IN DRINKING WATER FOR 25 WK, Promoter: NONE USED): 16/20 (80%), 9/20 (45%), 44%, p<0.05

N[C@@H](Cc1ccccc1)C(=O)O
tumour outcome (control, treated, inhibition, significance) (Carcinogen: N-METHYL-N'-NITRO-N-NITROSOGUANIDINE, 70-25-7, Dose [Inhibitor]: 0, 6% IN DIET FOR 26 WK ADMINISTERED POST CARCINOGEN DOSE (STUDY DURATION: 52 WK ), Route [Inhibitor]: ORAL, Species: RAT, Strain/Sex: WISTAR/MALE, Target Tissue: Type of Lesion: GLANDULAR STOMACH: ADENOCARCINOMA, Dose [Carcinogen]: 50 UG/ML DRINKING WATER FOR 26 WK): 18/25 (72%), 9/25 (36%), 50%, not calculated

O=C(CCC(O)c1ccccc1)c1ccccc1 (stereo not given)
tumour outcome (control, treated, inhibition, significance) (Carcinogen: 4-(METHYLNITROSAMINO)-1-(3-PYRIDYL)-1-BUTANONE, 64091-91-4, Dose [Inhibitor]: 0, 25 UMOL IN 0.1 ML CORN OIL ONCE 2 HR PRIOR TO CARCINOGEN DOSE (STUDY DURATION: 16 WK), Route [Inhibitor]: GAVAGE, Species: MOUSE, Strain/Sex: STRAIN-A/FEMALE, Target Tissue: Type of Lesion: LUNG: TUMOR, Dose [Carcinogen]: 10 UMOL IN 0.1 ML SALINE ONCE, Promoter: NONE USED): 100%, 100%, 0%, not significant

CC1=C(/C=C/C(C)=C/C=C/C(C)=C/CO)C(C)(C)CCC1
tumour outcome (control, treated, inhibition, significance) (Carcinogen: BENZO[A]PYRENE, 50-32-8, Dose [Inhibitor]: 0, 4000 IU/KG DIET BEGINNING 170 D PRIOR TO CARCINOGEN AND CONTINUING FOR STUDY DURATION (STUDY DURATION: 512 D), Route [Inhibitor]: ORAL, Species: HAMSTER, Strain/Sex: SYRIAN/MALE, Target Tissue: Type of Lesion: RESPIRATORY TRACT: TUMOR, Dose [Carcinogen]: 10 MG IN SALINE PLUS 8 MG FERRIC OXIDE 1/2 WK FOR 10 WK, Promoter: NONE USED): 44%, 36%, 18%, not significant
tumour outcome (control, treated, inhibition, significance) (Carcinogen: BENZO[A]PYRENE, 50-32-8, Dose [Inhibitor]: 0, 100000 IU/KG DIET BEGINNING 170 D PRIOR TO CARCINOGEN AND CONTINUING FOR STUDY DURATION (STUDY DURATION: 512 D), Route [Inhibitor]: ORAL, Species: HAMSTER, Strain/Sex: SYRIAN/MALE, Target Tissue: Type of Lesion: RESPIRATORY TRACT: TUMOR, Dose [Carcinogen]: 10 MG IN SALINE PLUS 8 MG FERRIC OXIDE 1/2 WK FOR 10 WK, Promoter: NONE USED): 44%, 35%, 20%, not significant

Oc1ccc(C2=Cc3ccc(O)cc3OC2)cc1
tumour outcome (control, treated, inhibition, significance) (Carcinogen: 7,12-DIMETHYLBENZ[A]ANTHRACENE, 57-97-6, Dose [Inhibitor]: 0, 50 MG/KG IN DIET FOR 117 D (STUDY DURATION: 117 D), Route [Inhibitor]: ORAL, Species: RAT, Strain/Sex: SPRAGUE-DAWLEY/FEMALE, Target Tissue: Type of Lesion: MAMMARY GLAND: TUMOR, Dose [Carcinogen]: 15 MG IN SESAME OIL, ONCE, 7 D AFTER FIRST INHIBITOR DOSE): 15/16 (94.7%), 12/18 (65%), 31.4%, p< 0.05
tumour outcome (control, treated, inhibition, significance) (Carcinogen: 7,12-DIMETHYLBENZ[A]ANTHRACENE, 57-97-6, Dose [Inhibitor]: 0, 75 MG/KG IN DIET FOR 117 D (STUDY DURATION: 117 D), Route [Inhibitor]: ORAL, Species: RAT, Strain/Sex: SPRAGUE-DAWLEY/FEMALE, Target Tissue: Type of Lesion: MAMMARY GLAND: TUMOR, Dose [Carcinogen]: 15 MG IN SESAME OIL, ONCE, 7 D AFTER FIRST INHIBITOR DOSE): 15/16 (94.7%), 12/17 (70%), 26.1%, p< 0.05

CC(C)C1CCC(O)CC1 (stereo not given)
tumour outcome (control, treated, inhibition, significance) (Carcinogen: 7,12-DIMETHYLBENZ[A]ANTHRACENE, 57-97-6, Dose [Inhibitor]: 0, 12 NMOL PER REPEATED APPLICATION FOR 20 WK (STUDY DURATION: 20 WK), Route [Inhibitor]: DERMAL, Species: MOUSE, Strain/Sex: CD-1/FEMALE, Target Tissue: Type of Lesion: SKIN: TUMOR, Dose [Carcinogen]: 100 UG ONCE, Promoter: OKADAIC ACID, 78111-17-8): 87%, 50%, 43%, not calculated

CC(C)(C)N=C=O
tumour outcome (control, treated, inhibition, significance) (Carcinogen: 7,12-DIMETHYLBENZ(A)ANTHRACENE, 57-97-6, Dose [Inhibitor]: 0.013 MMOL/G IN DIET BEGINNING 1 WK AFTER CARCINOGEN ADMINISTRATION (STUDY DURATION: 23 WK), Route [Inhibitor]: ORAL, Species: RAT, Strain/Sex: SPRAGUE-DAWLEY/FEMALE, Target Tissue: Type of Lesion: MAMMARY GLAND: TUMOR, Dose [Carcinogen]: 12 MG DMBA IN 1.0 ML OLIVE OIL ONCE, Promoter: NONE USED): 100%, 50%, 50%, p<0.001
